Reference: ChEMBL document CHEMBL1127459, “Synthesis and biological activity of 3-[2-(dimethylamino)ethyl]-5-[(1,1-dioxo-5-methyl-1,2,5-thiadiazolidin- 2-yl)-methyl]-1H-indole and analogues: agonists for the 5-HT1D receptor” (J Med Chem, 1994)

Experiments:
[1] = target: 5-HT1A receptor (Sus scrofa, UniProt A0A4X1UTF5); assay: Displacement of [3H]8-OH-DPAT binding to 5-hydroxytryptamine 1A receptor from pig cortex
[2] = Partition coefficient at pH 7.4; assay type: physicochemical; settings: octanol/water
[3] = target: T1, Serotonin 3 (5-HT3) receptor (Rattus norvegicus, UniProt P35563+Q9JJ16); assay: Displacement of [3H]-Q-ICS 205-930 binding to 5-hydroxytryptamine 3 receptor from rat cortex homogenate
T1 sequence (P35563 whole entry): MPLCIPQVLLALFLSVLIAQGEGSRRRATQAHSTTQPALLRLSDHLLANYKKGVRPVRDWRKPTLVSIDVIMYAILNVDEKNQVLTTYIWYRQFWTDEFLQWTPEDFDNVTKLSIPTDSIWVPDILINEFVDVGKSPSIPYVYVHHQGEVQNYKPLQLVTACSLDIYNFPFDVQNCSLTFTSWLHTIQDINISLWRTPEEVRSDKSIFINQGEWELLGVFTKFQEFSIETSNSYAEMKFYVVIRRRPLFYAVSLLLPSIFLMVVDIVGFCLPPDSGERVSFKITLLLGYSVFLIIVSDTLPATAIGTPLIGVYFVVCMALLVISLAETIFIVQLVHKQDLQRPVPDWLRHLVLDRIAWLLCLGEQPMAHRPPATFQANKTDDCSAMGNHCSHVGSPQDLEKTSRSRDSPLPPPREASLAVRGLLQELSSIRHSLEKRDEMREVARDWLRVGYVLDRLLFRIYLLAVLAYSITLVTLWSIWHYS
T1 sequence (Q9JJ16 whole entry): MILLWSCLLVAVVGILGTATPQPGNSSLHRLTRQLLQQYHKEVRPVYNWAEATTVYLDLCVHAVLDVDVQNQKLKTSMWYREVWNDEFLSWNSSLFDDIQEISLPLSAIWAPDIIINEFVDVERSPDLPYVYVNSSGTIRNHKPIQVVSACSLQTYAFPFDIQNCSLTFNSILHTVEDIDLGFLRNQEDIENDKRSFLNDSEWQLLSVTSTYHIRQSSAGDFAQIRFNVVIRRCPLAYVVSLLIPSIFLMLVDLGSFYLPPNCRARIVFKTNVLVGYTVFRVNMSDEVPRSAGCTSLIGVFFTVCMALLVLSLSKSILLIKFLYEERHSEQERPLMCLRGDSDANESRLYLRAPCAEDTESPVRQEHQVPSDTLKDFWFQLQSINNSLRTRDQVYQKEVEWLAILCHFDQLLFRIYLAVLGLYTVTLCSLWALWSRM

[4] = organism: Oryctolagus cuniculus; assay: Ability to contract saphenous vein of New Zealand white rabbit.; assay type: functional
[5] = target: 5-hydroxytryptamine receptor 2A (Rattus norvegicus, UniProt P14842); assay: Displacement of [3H]DOB binding to 5-hydroxytryptamine 2A receptor from rat cortex homogenate
5-hydroxytryptamine receptor 2A, sequence (P14842 whole entry): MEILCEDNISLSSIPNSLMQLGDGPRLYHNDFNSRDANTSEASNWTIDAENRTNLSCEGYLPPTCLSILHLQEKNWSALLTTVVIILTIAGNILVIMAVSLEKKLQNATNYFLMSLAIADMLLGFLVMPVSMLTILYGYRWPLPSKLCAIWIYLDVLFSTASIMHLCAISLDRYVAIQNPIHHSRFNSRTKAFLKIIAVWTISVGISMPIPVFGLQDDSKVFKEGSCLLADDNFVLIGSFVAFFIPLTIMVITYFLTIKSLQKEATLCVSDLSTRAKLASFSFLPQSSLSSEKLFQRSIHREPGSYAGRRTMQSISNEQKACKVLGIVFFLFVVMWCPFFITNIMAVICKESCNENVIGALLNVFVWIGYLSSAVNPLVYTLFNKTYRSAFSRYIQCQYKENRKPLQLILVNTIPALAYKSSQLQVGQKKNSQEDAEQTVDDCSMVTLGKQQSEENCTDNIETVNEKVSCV

[6] = target: 5-hydroxytryptamine receptor 1D (Sus scrofa, UniProt P79400); assay: Displacement of [3H]5-HT binding to 5-hydroxytryptamine 1D receptor from pig caudate membrane
5-hydroxytryptamine receptor 1D, sequence (P79400 whole entry): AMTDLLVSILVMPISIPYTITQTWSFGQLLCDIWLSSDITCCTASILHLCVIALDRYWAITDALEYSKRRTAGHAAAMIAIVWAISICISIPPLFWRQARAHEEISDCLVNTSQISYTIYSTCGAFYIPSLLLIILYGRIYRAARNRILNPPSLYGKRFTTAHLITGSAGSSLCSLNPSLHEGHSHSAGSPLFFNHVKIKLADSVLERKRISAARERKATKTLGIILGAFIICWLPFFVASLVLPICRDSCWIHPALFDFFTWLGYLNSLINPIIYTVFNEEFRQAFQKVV

[7] = organism: Oryctolagus cuniculus; assay: Ability to contract saphenous vein of New Zealand white rabbit; assay type: functional

For `CN(C)CCc1c[nH]c2ccc(CN3CCCN(C)S3(=O)=O)cc12`, which IC50 [1] is on record?
Its IC50 is 126 nM.

What about the logD [2] of the same molecule?
The logD was -0.02.

What about the IC50 [3] of the same molecule?
The IC50 was over 10000 nM.

What about the EC50 [4] of the same molecule?
The EC50 was 2510 nM.

And the IC50 [5]?
The IC50 was over 10000 nM.

And the IC50 [6]?
Its IC50 is 63.1 nM.

What does the source list for `CN(C)CCc1c[nH]c2ccc(CN3CCN(C)S3(=O)=O)cc12`?
IC50 [1]: 794 nM; logD [2]: -0.68; IC50 [3]: > 10000 nM; EC50 [7]: 631 nM; IC50 [5]: > 10000 nM; IC50 [6]: 63.1 nM

With `CN1CCN(Cc2ccc3scc(CCN)c3c2)S1(=O)=O` as the molecule, how does the IC50 [1] read?
The IC50 was 2000 nM.

And the EC50 [7]?
The EC50 was 12600 nM.

What about the IC50 [5] of the same molecule?
The IC50 was 2000 nM.

What about the IC50 [6] of the same molecule?
Its IC50 is 398 nM.

Which results are given for `CN(C)CCc1c[nH]c2ccc(CN3C(C)(C)CNS3(=O)=O)cc12`?
IC50 [1]: 1000 nM; logD [2]: -0.78; EC50 [4]: 6310 nM; IC50 [5]: > 10000 nM; IC50 [6]: 200 nM

With `CN(C)CCc1c[nH]c2ccc(CCN3CCN(C)S3(=O)=O)cc12` as the molecule, how does the IC50 [1] read?
The IC50 was 200 nM.

What about the logD [2] of the same molecule?
Its logD is -0.57.

What about the EC50 [4] of the same molecule?
The EC50 was 1580 nM.

What about the IC50 [5] of the same molecule?
The IC50 was 2510 nM.

What about the IC50 [6] of the same molecule?
Its IC50 is 39.8 nM.

For `CN(C)CCc1c[nH]c2ccc(CN3CC(C)(C)NS3(=O)=O)cc12`, which IC50 [1] is on record?
The IC50 was 251 nM.

And the logD [2]?
The logD was -0.39.

And the EC50 [4]?
Its EC50 is 2510 nM.

What about the IC50 [5] of the same molecule?
The IC50 was over 10000 nM.

What about the IC50 [6] of the same molecule?
The IC50 was 100 nM.

For `CN(C)CCc1c[nH]c2ccc(N3CCN(C)S3(=O)=O)cc12`, which IC50 [1] is on record?
The IC50 was 631 nM.

And the logD [2]?
The logD was -0.92.

What about the EC50 [7] of the same molecule?
The EC50 was 3160 nM.

And the IC50 [5]?
Its IC50 is over 10000 nM.

And the IC50 [6]?
The IC50 was 100 nM.

For `CN1CCN(Cc2ccc3[nH]cc(CCN)c3c2)S1(=O)=O`, which IC50 [1] is on record?
The IC50 was 631 nM.

What about the IC50 [5] of the same molecule?
Its IC50 is over 10000 nM.

What about the IC50 [6] of the same molecule?
Its IC50 is 316 nM.

With `CC(C)N1CCN(Cc2ccc3[nH]cc(CCN(C)C)c3c2)S1(=O)=O` as the molecule, how does the IC50 [1] read?
Its IC50 is 501 nM.

And the logD [2]?
The logD was 0.16.

What about the IC50 [5] of the same molecule?
The IC50 was over 10000 nM.

And the IC50 [6]?
The IC50 was 100 nM.

Which IC50 [1] does the source give for `CN(C)CCc1c[nH]c2ccc(N3CCN(Cc4ccccc4)S3(=O)=O)cc12` here?
Its IC50 is 79.4 nM.

What about the IC50 [5] of the same molecule?
The IC50 was 5010 nM.

What about the IC50 [6] of the same molecule?
The IC50 was 20 nM.

For `CCN1CCN(CCc2ccc3[nH]cc(CCN(C)C)c3c2)S1(=O)=O`, which IC50 [1] is on record?
Its IC50 is 126 nM.

And the EC50 [7]?
The EC50 was 1580 nM.

And the IC50 [5]?
Its IC50 is 2000 nM.

What about the IC50 [6] of the same molecule?
Its IC50 is 39.8 nM.

With `CNS(=O)(=O)Cc1ccc2[nH]cc(CCN(C)C)c2c1` as the molecule, how does the IC50 [1] read?
Its IC50 is 501 nM.

And the IC50 [3]?
The IC50 was over 10000 nM.

With `CN(C)CCc1c[nH]c2ccc(CN3CCNS3(=O)=O)cc12` as the molecule, how does the IC50 [1] read?
Its IC50 is 794 nM.

What about the logD [2] of the same molecule?
The logD was -0.97.

What about the EC50 [7] of the same molecule?
Its EC50 is 2510 nM.

What about the IC50 [5] of the same molecule?
Its IC50 is over 10000 nM.

What about the IC50 [6] of the same molecule?
Its IC50 is 100 nM.

What does the source list for `CN(C)CCc1c[nH]c2ccc(CCN3CCNS3(=O)=O)cc12`?
IC50 [1]: 126 nM; IC50 [5]: 5010 nM; IC50 [6]: 39.8 nM

Which results are given for `CC(=O)Nc1ccc(CN2CCN(Cc3ccc4[nH]cc(CCN(C)C)c4c3)S2(=O)=O)cc1`?
IC50 [1]: 200 nM; logD [2]: 0.42; EC50 [4]: 501 nM; IC50 [5]: 7940 nM; IC50 [6]: 20 nM

Which IC50 [1] does the source give for `CNCCc1c[nH]c2ccc(CN3CCN(C)S3(=O)=O)cc12` here?
Its IC50 is 794 nM.

What about the logD [2] of the same molecule?
The logD was -1.71.

And the EC50 [4]?
Its EC50 is 2000 nM.

And the IC50 [5]?
The IC50 was over 10000 nM.

And the IC50 [6]?
The IC50 was 100 nM.
